Measurements published in ChEMBL document CHEMBL3797114, “Design, synthesis and biological evaluation of 6-substituted pyrrolo[2,3-d]pyrimidines as dual inhibitors of TS and AICARFTase and as potential antitumor agents” (Eur J Med Chem, 2016).
Activity calls are given as the source filed them. The calls are words filed in the database; no cut-off is given here.

Columns and labels:
[1] = Antiproliferative activity against human SW620 cells after 72 hrs by MTT assay in presence of leucovorin; format: functional, cell-based; conditions: SW-620, 72 h
A549 = test: Antiproliferative activity against human A549 cells after 72 hrs by MTT assay in presence of leucovorin; format: functional, cell-based; conditions: A549, 72 h
KB [2] = test: Antiproliferative activity against human KB cells after 72 hrs by MTT assay in presence of leucovorin; format: functional, cell-based
[3] = Cell cycle arrest in human SW620 cells assessed as accumulation at G1 phase at 10 uM after 96 hrs by propidium iodide staining based flow cytometry in presence of leucovorin (reference value: 62.4 %); format: functional; conditions: SW-620
[4] = Cell cycle arrest in human SW620 cells assessed as accumulation at G2 phase at 10 uM after 96 hrs by propidium iodide staining based flow cytometry in presence of leucovorin (reference value: 10.3 %); format: functional; conditions: SW-620
[5] = Cell cycle arrest in human SW620 cells assessed as accumulation at S phase at 10 uM after 96 hrs by propidium iodide staining based flow cytometry in presence of leucovorin (reference value: 27.3 %); format: functional; conditions: SW-620
SW-620 [6] = test: Induction of apoptosis in human SW620 cells assessed as necrotic cells at 10 uM after 48 hrs by annexin V-FITC/PI staining based flow cytometry in presence of leucovorin (reference value: 9 %); format: functional
[7] = target: Thymidylate synthase (Homo sapiens) (UniProt P04818); test: Inhibition of thymidylate synthase in human SW620 cells assessed as growth inhibition at 0.001 to 10 uM coincubated with excessive thymidine; format: cell-based; conditions: SW-620
Sequence of Thymidylate synthase (Homo sapiens) (P04818 2-313 limits assumed): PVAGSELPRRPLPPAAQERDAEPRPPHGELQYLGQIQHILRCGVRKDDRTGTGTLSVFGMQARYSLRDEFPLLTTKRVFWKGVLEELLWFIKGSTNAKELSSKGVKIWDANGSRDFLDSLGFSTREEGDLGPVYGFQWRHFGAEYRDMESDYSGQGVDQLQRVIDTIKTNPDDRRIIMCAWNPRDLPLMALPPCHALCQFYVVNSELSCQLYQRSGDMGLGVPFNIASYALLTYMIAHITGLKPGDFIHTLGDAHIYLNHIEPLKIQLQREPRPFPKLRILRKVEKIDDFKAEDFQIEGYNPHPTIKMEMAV

[8] = target: Thymidylate synthase/GAR transformylase/AICAR transformylase (Homo sapiens) (UniProt P04818+P31939+P22102); test: Inhibition of thymidylate synthase/GARFTase/AICARFTase in human SW620 cells assessed as growth inhibition at 0.001 to 10 uM coincubated with thymidine and adenosine; format: cell-based; conditions: SW-620
Sequence of Thymidylate synthase/GAR transformylase/AICAR transformylase (Homo sapiens) (P04818 whole entry, looked up): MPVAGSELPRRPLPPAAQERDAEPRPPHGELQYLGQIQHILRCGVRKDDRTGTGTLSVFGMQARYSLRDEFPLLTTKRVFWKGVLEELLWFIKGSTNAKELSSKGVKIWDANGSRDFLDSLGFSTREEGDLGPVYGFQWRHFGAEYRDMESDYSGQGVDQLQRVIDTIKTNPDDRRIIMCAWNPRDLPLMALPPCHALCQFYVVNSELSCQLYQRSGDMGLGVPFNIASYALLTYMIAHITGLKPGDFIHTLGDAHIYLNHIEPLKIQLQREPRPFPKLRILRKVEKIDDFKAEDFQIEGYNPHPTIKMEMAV
Sequence of Thymidylate synthase/GAR transformylase/AICAR transformylase (Homo sapiens) (P22102 whole entry, looked up): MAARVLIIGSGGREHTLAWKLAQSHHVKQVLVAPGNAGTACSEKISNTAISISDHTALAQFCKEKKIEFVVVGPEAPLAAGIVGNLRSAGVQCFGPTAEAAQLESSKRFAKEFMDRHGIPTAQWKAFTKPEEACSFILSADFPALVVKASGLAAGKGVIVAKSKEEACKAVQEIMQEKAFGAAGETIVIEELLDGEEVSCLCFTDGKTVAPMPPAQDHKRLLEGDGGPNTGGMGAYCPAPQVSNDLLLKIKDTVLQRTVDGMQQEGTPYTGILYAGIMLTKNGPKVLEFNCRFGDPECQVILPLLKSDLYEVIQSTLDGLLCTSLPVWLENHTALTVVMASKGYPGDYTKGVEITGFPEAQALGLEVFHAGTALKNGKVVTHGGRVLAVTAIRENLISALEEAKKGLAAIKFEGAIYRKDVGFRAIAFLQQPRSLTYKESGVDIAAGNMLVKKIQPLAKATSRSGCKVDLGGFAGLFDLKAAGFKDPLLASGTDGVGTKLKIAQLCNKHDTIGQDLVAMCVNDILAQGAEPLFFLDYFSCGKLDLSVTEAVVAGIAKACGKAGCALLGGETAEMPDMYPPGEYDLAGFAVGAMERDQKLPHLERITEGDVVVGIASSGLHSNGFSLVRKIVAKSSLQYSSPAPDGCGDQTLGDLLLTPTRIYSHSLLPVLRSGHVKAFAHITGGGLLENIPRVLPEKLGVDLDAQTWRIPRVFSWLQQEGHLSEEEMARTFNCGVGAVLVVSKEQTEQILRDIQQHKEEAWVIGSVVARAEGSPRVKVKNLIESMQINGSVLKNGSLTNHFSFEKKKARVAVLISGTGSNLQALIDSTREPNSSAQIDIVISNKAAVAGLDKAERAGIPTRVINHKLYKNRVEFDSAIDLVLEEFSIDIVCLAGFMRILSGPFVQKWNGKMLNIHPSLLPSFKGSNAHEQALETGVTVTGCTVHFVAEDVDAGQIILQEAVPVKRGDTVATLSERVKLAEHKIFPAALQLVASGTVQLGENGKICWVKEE
Sequence of Thymidylate synthase/GAR transformylase/AICAR transformylase (Homo sapiens) (P31939 whole entry, looked up): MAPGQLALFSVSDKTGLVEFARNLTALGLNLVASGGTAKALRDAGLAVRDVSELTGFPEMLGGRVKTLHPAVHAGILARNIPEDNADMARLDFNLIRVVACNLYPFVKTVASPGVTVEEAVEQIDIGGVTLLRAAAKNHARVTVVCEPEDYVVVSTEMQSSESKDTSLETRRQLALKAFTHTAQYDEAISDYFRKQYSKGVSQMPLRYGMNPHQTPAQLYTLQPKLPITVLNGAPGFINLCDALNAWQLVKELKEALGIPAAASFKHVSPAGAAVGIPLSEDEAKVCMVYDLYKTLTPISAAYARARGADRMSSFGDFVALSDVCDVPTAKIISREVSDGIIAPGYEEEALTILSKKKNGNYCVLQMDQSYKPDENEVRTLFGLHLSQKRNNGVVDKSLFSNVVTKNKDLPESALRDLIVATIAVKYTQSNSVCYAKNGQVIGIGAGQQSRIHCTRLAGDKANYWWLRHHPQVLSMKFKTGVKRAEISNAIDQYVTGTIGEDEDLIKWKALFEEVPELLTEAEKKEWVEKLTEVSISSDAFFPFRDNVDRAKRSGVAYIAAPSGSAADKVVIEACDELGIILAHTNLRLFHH

[9] = target: Thymidylate synthase/AICAR transformylase (Homo sapiens) (UniProt P04818+P31939); test: Inhibition of thymidylate synthase/AICARFTase in human SW620 cells assessed as growth inhibition at 0.001 to 10 uM coincubated with AICA and […]; format: cell-based; conditions: SW-620
Sequence of Thymidylate synthase/AICAR transformylase (Homo sapiens) (P04818 whole entry, looked up): as the sequence (P04818 whole entry, looked up) above
Sequence of Thymidylate synthase/AICAR transformylase (Homo sapiens) (P31939 whole entry, looked up): as the sequence (P31939 whole entry, looked up) above

[10] = target: Bifunctional purine biosynthesis protein ATIC (Homo sapiens) (UniProt P31939); test: Inhibition of AICARFTase in human SW620 cells assessed as growth inhibition at 0.001 to 10 uM coincubated with AICA; format: cell-based; conditions: SW-620
Sequence of Bifunctional purine biosynthesis protein ATIC (Homo sapiens) (P31939 whole entry, looked up): as above

[11] = target: GAR transformylase/AICAR transformylase (Homo sapiens) (UniProt P31939+P22102); test: Inhibition of GARFTase/AICARFTase in human SW620 cells assessed as growth inhibition at 0.001 to 10 uM coincubated with adenosine; format: cell-based; conditions: SW-620
Sequence of GAR transformylase/AICAR transformylase (Homo sapiens) (P22102 whole entry, looked up): as the sequence (P22102 whole entry, looked up) above
Sequence of GAR transformylase/AICAR transformylase (Homo sapiens) (P31939 whole entry, looked up): as the sequence (P31939 whole entry, looked up) above

SW-620 [12] = test: Induction of apoptosis in human SW620 cells assessed as viable cells at 10 uM after 48 hrs by annexin V-FITC/PI staining based flow cytometry in presence of leucovorin (reference value: 84.0 %); format: functional; conditions: SW-620, 48 h, read-out: Activity
KB [13] = test: Inhibition of colony formation in human KB cells at 1 uM measured after 10 to 14 days by methylene blue staining based assay presence of leucovorin; format: functional
SW-620 [14] = test: Induction of apoptosis in human SW620 cells assessed as early apoptotic cells at 10 uM after 48 hrs by annexin V-FITC/PI staining based flow cytometry in presence of leucovorin (reference value: 0.6 %); format: functional
SW-620 [15] = test: Induction of apoptosis in human SW620 cells assessed as late apoptotic cells at 10 uM after 48 hrs by annexin V-FITC/PI staining based flow cytometry in presence of leucovorin (reference value: 6.4 %); format: functional

| Structure (SMILES) | IC50 (A549) [µM] | IC50 (KB [2]) [µM] | IC50 [1] [µM] | Activity [3] [%] | Activity [4] [%] | Activity [5] [%] | other results |
| --- | --- | --- | --- | --- | --- | --- | --- |
| Nc1nc2[nH]c(CCSCC(=O)NCc3cccnc3)cc2c(=O)[nH]1 | 56.6 | 37.5 | 25.3 |  |  |  |  |
| Nc1nc2[nH]c(CCSCCC(=O)NCc3ccccn3)cc2c(=O)[nH]1 | 77.3 | 8.93 | 11.9 |  |  |  |  |
| CN(Cc1cnc2nc(N)nc(N)c2n1)c1ccc(C(=O)N[C@@H](CCC(=O)O)C(=O)O)cc1 [METHOTREXATE] | 0.99 |  | 0.013 |  |  |  |  |
| Nc1nc2[nH]c(CCSCC(=O)NCc3ccncc3)cc2c(=O)[nH]1 | 42.4 | 14.1 | 22.7 |  |  |  |  |
| Nc1nc2[nH]c(CCSCC(=O)NCc3ccccn3)cc2c(=O)[nH]1 | 14.1 | 28.4 | 36.1 |  |  |  |  |

Further molecules by falling IC50 (A549), results first:

| IC50 (A549) [µM] | IC50 (KB [2]) [µM] | Structure (SMILES) | IC50 [1] [µM] | Activity [3] [%] | Activity [4] [%] | Activity [5] [%] | other results |
| --- | --- | --- | --- | --- | --- | --- | --- |
| 7.87 | 45.6 | Nc1nc2[nH]c(CCSCCC(=O)NCc3ccncc3)cc2c(=O)[nH]1 | 24.8 |  |  |  |  |
| 1.26 |  | Nc1nc2[nH]cc(CCc3ccc(C(=O)N[C@@H](CCC(=O)O)C(=O)O)cc3)c2c(=O)[nH]1 [PEMETREXED] | 0.08 | 45.8 | 0 | 54.2 |  |
| 1.07 | 0.648 | Nc1nc2[nH]c(CCSCCC(=O)NCc3cccnc3)cc2c(=O)[nH]1 | 0.665 | 66.5 | 8.6 | 24.9 | Activity (SW-620 [6]): 22%; viability at 10 µM (SW-620 [12]): 51.8%; inhibition at 1 µM (KB [13]): 70%; Activity (SW-620 [14]): 1.1%; Activity (SW-620 [15]): 25.1% |
| 0.713 | 0.324 | Nc1nc2[nH]c(CCSCCC(=O)N[C@@H](CCC(=O)O)C(=O)O)cc2c(=O)[nH]1 | 0.387 | 56.3 | 4.5 | 39.2 | Activity (SW-620 [6]): 41.6%; growth inhibition (GI) [7]: inactive; growth inhibition (GI) [8]: inactive; growth inhibition (GI) [9]: inactive; growth inhibition (GI) [10]: inactive; growth inhibition (GI) [11]: inactive; viability at 10 µM (SW-620 [12]): 22.1%; inhibition at 1 µM (KB [13]): 80%; Activity (SW-620 [14]): 1.5%; Activity (SW-620 [15]): 34.8% |
| 0.668 | 0.373 | Nc1nc2[nH]c(CCSCC(=O)N[C@@H](CCC(=O)O)C(=O)O)cc2c(=O)[nH]1 | 0.442 |  |  |  |  |
